In data set [1] the test system is DENV-2 16681 strain. Kind of data set: DENV-2 antiviral assay (eGFP-labeled virus in Vero cells). It is filed as cell-based, Dengue virus. The note with it: DENV-2 16681 eGFP, MOI 0.5, 3 days. How it is done: The antiviral activity of all the compounds of the invention was tested against the DENV-2 16681 strain which was labeled with enhanced green fluorescent protein (eGPF). The culture medium consists of minimal essential medium supplemented with 2% of heat-inactivated fetal calf serum, 0.04% gentamycin (50 mg/mL) and 2 mM of L-glutamine. Vero cells, obtained from ECACC, were suspended in culture medium and 25 μL was added to 384-well plates (2500 cells/well), which already contain the antiviral compounds. Typically, these plates contain a 5-fold serial dilution of 9 dilution steps of the test compound at 200 times the final concentration in 100% DMSO (200 nL). […] Finally, each plate contains wells which are assigned as virus controls (containing cells and virus in the absence of compound), cell controls (containing cells in the absence of virus and compound) and medium controls (containing medium in the absence of cells, virus and compounds). To the wells assigned as medium control, 25 μL of culture medium was added instead of Vero cells. Once the cells were added to the plates, the plates were incubated for 30 minutes at room temperature to allow the cells to distribute evenly within the wells. Next, the plates were incubated in a fully humidified incubator (37° C., 5% CO2) until the next day. Then, DENV-2 strain 16681, labeled with eGFP, was added at a multiplicity of infection (MOI) of 0.5. Therefore, 15 μL of virus suspension was added to all the wells containing test compound and to the wells assigned as virus control. In parallel, 15 μL of culture medium was added to the medium and cell controls. Next, the plates were incubated for 3 days in a fully humidified incubator (37° C., 5% CO2). At the day of the read out, the eGFP fluorescence was measured using an automated fluorescence microscope at 488 nm (blue laser). Using an in-house LIMS system, inhibition dose response curves for each compound were calculated and the half maximal effective concentration (EC50) was determined. Therefore, the percent inhibition (I) for every test concentration is calculated using the following formula: I=100*([…])/(SVC−SCC); ST, SCC and SVC are the amount of eGFP signal in the test compound, cell control and virus control wells, respectively. The EC50 represents the concentration of a compound at which the virus replication is inhibited with 50%, as measured by a 50% reduction of the eGFP fluorescent intensity compared to the virus control. The EC50 is calculated using linear interpolation (Table 1).

For data set [2], the system named is DENV-1 strain TC974 #666. Kind of data set: Tetravalent RT-qPCR assay, serotype 1. It is filed as cell-based. The note with it: Dengue virus, DENV1, 72 h; RT-qPCR serotype 1 TC974#666, Protocol A, Vero cells, day 3. How it is done:
(§1) The antiviral activity of the compounds of the invention was tested against DENV-1 strain TC974 #666 (NCPV), DENV-2 strain 16681, DENV-3 strain H87 (NCPV) and DENV-4 strain H241 (NCPV) in a RT-qPCR assay. Therefore, Vero cells were infected with either DENV-1, or -2, or -3, or -4 in the presence or absence of test compounds. At day 3 post-infection, the cells were lysed and cell lysates were used to prepare cDNA of both a viral target (the 3′UTR of DENV; Table 2) and cellular reference gene (β-actin, Table 2). Subsequently, a duplex real time PCR was performed on a Lightcycler480 instrument. The generated Cp value is inversely proportional to the amount of RNA expression of these targets. Inhibition of DENV replication by a test compound results in a shift of Cp's for the 3′UTR gene. On the other hand, if a test compound is toxic to the cells, a similar effect on β-actin expression will be observed. The comparative ΔΔCp method is used to calculate EC50, which is based on the relative gene expression of the target gene (3′UTR) normalized with the cellular housekeeping gene (β-actin). In addition, CC50 values are determined based on the Cp values acquired for the housekeeping gene β-actin.
(§2) The culture medium consisted of minimal essential medium supplemented with 2% of heat-inactivated fetal calf serum, 0.04% gentamycin (50 mg/mL) and 2 mM of L-glutamine. Vero cells, obtained from ECACC, were suspended in culture medium and 75 μL/well was added in 96-well plates (10000 cells/well), which already contain the antiviral compounds. […] In addition, each plate contains wells which are assigned as virus controls (containing cells and virus in the absence of compound) and cell controls (containing cells in the absence of virus and compound). Once the cells were added in the plates, the plates were incubated in a fully humidified incubator (37° C., 5% CO2) until the next day. Dengue viruses serotype-1, 2, 3 and 4 were diluted in order to obtain a Cp of ˜22-24 in the assay. Therefore, 25 μL of virus suspension was added to all the wells containing test compound and to the wells assigned as virus control. In parallel, 25 μL of culture medium was added to the cell controls. Next, the plates were incubated for 3 days in a fully humidified incubator (37° C., 5% CO2). After 3 days, the supernatant was removed from the wells and the cells were washed twice with ice-cold PBS (˜100 μL). The cell pellets within the 96-well plates were stored at −80° C. for at least 1 day. Next, RNA was extracted using the Cells-to-CT™ lysis kit, according to the manufacturer's guideline (Life Technologies). The cell lysates can be stored at −80° C. or immediately used in the reverse transcription step.
(§3) In preparation of the reverse transcription step, mix A (table 3A) was prepared and 7.57 μL/well was dispensed in a 96-well plate. After addition of 5 μL of the cell lysates, a five minute denaturation step at 75° C. was performed (table 3B). Afterwards, 7.43 μL of mix B was added (table 3C) and the reverse transcription step was initiated (table 3D) to generate cDNA.
(§4) Finally, a RT-qPCR mix was prepared, mix C (table 4A), and 22.02 μL/well was dispensed in 96-well LightCycler qPCR plates to which 3 μL of cDNA was added and the qPCR was performed according to the conditions in table 4B on a LightCycler 480.
(§5) Using the LightCycler software and an in-house LIMS system, dose response curves for each compound were calculated and the half maximal effective concentration (EC50) and the half maximal cytotoxic concentration (CC50) were determined (Tables 5-8).
In general terms: In qPCR the cycle at which signal appears reflects the starting amount.

In data set [3] the test system is DENV-2 strain 16681. Kind of data set: Tetravalent RT-qPCR assay, serotype 2. The note with it: Dengue virus, DENV2, 72 h; RT-qPCR serotype 2 16681, Protocol A, Vero cells, day 3. It is filed as cell-based. How it is done: as §1, §2, §3, §4, §5
Data set [4] concerns DENV-3 strain H87. Kind of data set: Tetravalent RT-qPCR assay, serotype 3. It is filed as cell-based. The note with it: Dengue virus, DENV3, 72 h; RT-qPCR serotype 3 H87, Protocol A, Vero cells, day 3. How it is done:
as §1, §2, §3, §4, §5

The test system of data set [5] is DENV-4 strain H241. Nature of the data set: Tetravalent RT-qPCR assay, serotype 4. The format is cell-based. As to conditions: Dengue virus, DENV4, 72 h; RT-qPCR serotype 4 H241, Protocol A, Vero cells, day 3. The protocol:
as §1, §2, §3, §4, §5

A short description of data set [6]: Cytotoxicity in RT-qPCR assay (Cp of housekeeping gene β-actin). It is filed as cell-based. As to conditions: African green monkey. The protocol:
as §1, §2, §5

Data set [7] deals with Vero cells. Nature of the data set: Toxicity on the same plates (ATPlite cell viability). As to conditions: Vero cells, same plates as DENV-2 antiviral assay.
The mark [8] stands for this setting: RT-qPCR serotype 1 TC974#666, Protocol A.
Setting [9] is: RT-qPCR serotype 2 16681, Protocol A.
The mark [10] stands for this setting: RT-qPCR serotype 3 H87, Protocol A.
Where [11] appears, read: RT-qPCR serotype 4 H241, Protocol A.

The term EC50 denotes the concentration at which the effect is half-maximal. The term CC50 denotes the concentration giving 50% cytotoxicity. Read a low CC50 as greater toxicity to the cells.

With `COc1cc(NC(C(=O)c2c[nH]c3ccc(C(F)(F)F)cc23)c2ccc(F)cc2OC)cc(OCCO)c1` (single isomer, unassigned) [Compound 1B, 2-(4-fluoro-2-methoxyphenyl)-2-((3-(2-hydroxyethoxy)-5-methoxyphenyl)amino)-1-(5-(trifluoromethyl)-1H-indol-3-yl)ethanone], the EC50 worked out at 0.62 nM in data set [1]; 1.3 nM in data set [2]; 0.41 nM in data set [3]; 14 nM in data set [4]; 50 nM in data set [5]. For the same compound, the CC50 at 3 days was determined as 3300 nM in data set [6] (setting [8]), 3500 nM in data set [6] (setting [9]), 3200 nM in data set [6] (setting [10]) and 2600 nM in data set [6] (setting [11]).

Take `COc1cc(NC(C(=O)c2c[nH]c3cc(F)c(C(F)(F)F)cc23)c2ccc(F)cc2OC)cc(OCCO)c1` (single isomer, unassigned) [Compound 3A, 2-(4-fluoro-2-methoxyphenyl)-1-(6-fluoro-5-(trifluoromethyl)-1H-indol-3-yl)-2-((3-(2-hydroxyethoxy)-5-methoxyphenyl)amino)ethanone]: the EC50 in data set [1] is 0.47 nM; in data set [2] it was 2.1 nM; in data set [3], 0.46 nM; in data set [4] it was 18 nM; in data set [5] it was 62 nM. Also, the CC50 at 3 days is over 2500 nM in data set [6] (setting [8]), 2600 nM in data set [6] (setting [9]), over 2500 nM in data set [6] (setting [10]) and over 2500 nM in data set [6] (setting [11]). In data set [7], this compound had a CC50 of 2400 nM.

For `COc1cc(NC(C(=O)c2c[nH]c3c(C)cc(C(F)(F)F)cc23)c2ccc(F)cc2OC)cc(OCCO)c1` (single isomer, unassigned) [Compound 4B, 2-(4-fluoro-2-methoxyphenyl)-2-((3-(2-hydroxyethoxy)-5-methoxyphenyl)amino)-1-(7-methyl-5-(trifluoromethyl)-1H-indol-3-yl)ethanone], the EC50 in data set [1] is 0.46 nM; in data set [2] it was 1.4 nM; in data set [3], 0.36 nM; in data set [4], 9.2 nM; in data set [5] it was 51 nM. In addition, the CC50 at 3 days in data set [6] (setting [8]) was over 2500 nM; in data set [6] (setting [9]), over 2400 nM; in data set [6] (setting [10]), over 2500 nM; in data set [6] (setting [11]), over 2100 nM. This compound also showed a CC50 in data set [7] of 2500 nM.

Consider `COc1cc(NC(C(=O)c2c[nH]c3ccc(OC(F)(F)F)cc23)c2ccc(F)cc2OC)cc(OCCO)c1` (single isomer, unassigned) [Compound 5B, 2-(4-fluoro-2-methoxyphenyl)-2-((3-(2-hydroxyethoxy)-5-methoxyphenyl)amino)-1-(5-(trifluoromethoxy)-1H-indol-3-yl)ethanone], for which the EC50 in data set [1] turned out to be 0.3 nM; in data set [2], 0.77 nM; in data set [3] it was 0.36 nM; in data set [4] it was 6 nM; in data set [5], 50 nM. For the same compound, the CC50 at 3 days in data set [6] (setting [8]) is over 2500 nM; in data set [6] (setting [9]), 3200 nM; in data set [6] (setting [10]), over 2500 nM; in data set [6] (setting [11]), 2400 nM. It took 3300 nM to reach half-maximal cytotoxicity in data set [7] (CC50).

`COc1cc(NC(C(=O)c2c[nH]c3cc(OC)c(OC(F)(F)F)cc23)c2ccc(F)cc2OC)cc(OCCO)c1` (single isomer, unassigned) [Compound 6A, 2-(4-fluoro-2-methoxyphenyl)-2-((3-(2-hydroxyethoxy)-5-methoxyphenyl)amino)-1-(6-methoxy-5-(trifluoromethoxy)-1H-indol-3-yl)ethanone]: the EC50 came out at 0.33 nM in data set [1]; 2.6 nM in data set [2]; 0.55 nM in data set [3]; 12 nM in data set [4]; 78 nM in data set [5]. Further, the CC50 at 3 days in data set [6] (setting [8]) was over 2100 nM; in data set [6] (setting [9]), 3900 nM; in data set [6] (setting [10]), over 2500 nM; in data set [6] (setting [11]), 1500 nM. Moreover, the CC50 in data set [7] was over 2500 nM.

As to `COc1cc(NC(C(=O)c2c[nH]c3cc(F)c(OC(F)(F)F)cc23)c2ccc(F)cc2OC)cc(OCCO)c1` (single isomer, unassigned) [Compound 7B, 2-(4-fluoro-2-methoxyphenyl)-1-(6-fluoro-5-(trifluoromethoxy)-1H-indol-3-yl)-2-((3-(2-hydroxyethoxy)-5-methoxyphenyl)amino)ethanone], the concentration giving a half-maximal response (EC50) in data set [1] worked out at 0.53 nM; in data set [2] it was 1.2 nM; in data set [3] it was 0.55 nM; in data set [4], 8.2 nM; in data set [5], 52 nM. Further, the CC50 at 3 days was over 2500 nM in data set [6] (setting [8]), over 2500 nM in data set [6] (setting [9]), over 2500 nM in data set [6] (setting [10]) and 2100 nM in data set [6] (setting [11]). Besides, the 50% cytotoxic concentration (CC50) in data set [7] was 2400 nM.

For the compound `COc1cc(NC(C(=O)c2c[nH]c3ccc(OC(F)(F)F)cc23)c2ccc(Cl)cc2OC)cc(OCCO)c1` (single isomer, unassigned) [Compound 13A, 2-(4-chloro-2-methoxyphenyl)-2-((3-(2-hydroxyethoxy)-5-methoxyphenyl)amino)-1-(5-(trifluoromethoxy)-1H-indol-3-yl)ethanone], the EC50 in data set [1] was found to be 0.14 nM; in data set [2], 0.51 nM; in data set [3] it was 0.2 nM; in data set [4], 3.5 nM; in data set [5], 20 nM. For the same compound, the cytotoxic concentration (CC50) at 3 days is 1200 nM in data set [6] (setting [8]), 2600 nM in data set [6] (setting [9]), over 2500 nM in data set [6] (setting [10]) and over 2500 nM in data set [6] (setting [11]).

(Values after US10646469B2, “Substituted indole derivatives as dengue viral replication inhibitors” (Janssen Pharmaceuticals, Inc., priority 2016, dated 2020).)
